As a reminder, the GI50 is the concentration giving 50% growth inhibition.

The values below come from ChEMBL document CHEMBL1201862, “PubChem BioAssay data set” (2004).

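All cell lines were grown in 96-well plates and treated with compound for 48 hours. GI50: concentration for 50% inhibition of growth.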 Calls of active or inactive are those of the source. Rule as the data show it: active = GI50 up to about 1.1 µM and inactive = higher. Bounds are passed on as bounds.

Test systems include 786-0; ACHN; BT-549; DU-145; HCT-15; HOP-62; HOP-92; HT-29; IGROV-1; NCI-H226; NCI-H23; NCI/ADR-RES; OVCAR-4; OVCAR-8; SK-MEL-5; SK-OV-3; SNB-19; TK-10; UO-31; DLD-1.
What all share (test): DTP human tumour cell line panel, 48 h

As for `CC1=CC(=O)/C(=C/Nc2nc(-c3cccc([N+](=O)[O-])c3)cs2)C(=O)O1`, the GI50 in the assay with 786-0 is 30.8 µM (inactive); in the assay with ACHN it was 46.2 µM (inactive); with BT-549, 21.9 µM (inactive); with DU-145 it was > 100 µM (inactive); with HCT-15 it was 23 µM; with HOP-62, > 100 µM (inactive). For the same compound, the GI50 in the assay on HOP-92 is > 100 µM (inactive); in the assay on HT-29, 89.9 µM (inactive); in the assay with IGROV-1, 38.4 µM (inactive); with NCI-H226, > 100 µM (inactive); in the assay with NCI-H23, 60.5 µM (inactive); with NCI/ADR-RES it was 44.4 µM (inactive). Besides, the GI50 in the assay on OVCAR-4 is > 100 µM (inactive); with OVCAR-8, > 100 µM (inactive); in the assay with SK-MEL-5, 54.2 µM (inactive); in the assay on SK-OV-3, > 100 µM (inactive); in the assay on SNB-19 it was > 100 µM (inactive); in the assay on TK-10, 1.93 µM (inactive). Besides, the GI50 in the assay with UO-31 is 29.9 µM (inactive).
Take `COc1ccc(CC(=O)NCCc2ccc(OC)c(OC)c2OC)cc1`: the GI50 with 786-0 was 41.6 µM (inactive); in the assay with ACHN, > 100 µM (inactive); with DLD-1 it was > 100 µM (inactive); with HOP-62 it was > 100 µM (inactive); in the assay on HT-29, > 100 µM (inactive); in the assay with IGROV-1, > 100 µM (inactive). Also, the GI50 in the assay on NCI-H226, in the assay on NCI-H23, in the assay with OVCAR-8, in the assay with SK-MEL-5, in the assay with SK-OV-3 and in the assay with SNB-19 was > 100 µM (inactive) in each case. Besides, the GI50 in the assay with TK-10 and in the assay with UO-31 was > 100 µM (inactive) each time.
With `COC(=O)C1=C(C(=O)OC)C2OC1C1C2C2(C)C(C)=C(C)C1(C)[S+]2[O-]` (centres undefined), the GI50 in the assay with 786-0 was 4.65 µM (inactive); with ACHN, 2.83 µM (inactive); with BT-549, 10.4 µM (inactive); in the assay on DU-145, 6.62 µM (inactive); with HCT-15 it was 4.18 µM; in the assay on HOP-62 it was 20.2 µM (inactive). Besides, the GI50 in the assay with HOP-92 is 15.8 µM (inactive); in the assay with HT-29, 6.47 µM (inactive); in the assay with IGROV-1, 16.7 µM (inactive); in the assay with NCI-H226, 8.02 µM (inactive); in the assay with NCI-H23 it was 6.93 µM (inactive); in the assay on NCI/ADR-RES it was 23.7 µM (inactive). Besides, the GI50 in the assay with OVCAR-4 is 12.1 µM (inactive); in the assay with OVCAR-8 it was 5.15 µM (inactive); in the assay on SK-MEL-5 it was 7.62 µM (inactive); with SK-OV-3 it was 37.9 µM (inactive); with SNB-19, 30.3 µM (inactive); with TK-10, 12.2 µM (inactive). Moreover, the GI50 in the assay on UO-31 is 4.21 µM (inactive).
On to `COc1cc2cc(C(=O)N3CC(CCl)c4ccccc43)[nH]c2c(OC)c1OC` (centres undefined), for which the GI50 in the assay on 786-0 was 97.5 µM (inactive); in the assay with ACHN, > 77.3 µM (inactive); in the assay with BT-549, 28.6 µM (inactive); in the assay on DU-145, 62.1 µM (inactive); in the assay on HCT-15 it was 24.1 µM; with HOP-62 it was > 56.2 µM (inactive). The GI50 with HOP-92 is > 100 µM (inactive); with HT-29 it was 26.8 µM (inactive); in the assay with IGROV-1, > 100 µM (inactive); in the assay with NCI-H226 it was > 100 µM (inactive); in the assay on NCI-H23, > 100 µM (inactive); in the assay with NCI/ADR-RES, 34.8 µM (inactive). The GI50 is > 94.4 µM (inactive) in the assay with OVCAR-4; 81.8 µM (inactive) in the assay on OVCAR-8; 24.7 µM (inactive) in the assay on SK-MEL-5; > 100 µM (inactive) in the assay with SK-OV-3; > 100 µM (inactive) in the assay on SNB-19; > 100 µM (inactive) in the assay on TK-10. Moreover, the GI50 in the assay on UO-31 was 47.4 µM (inactive).
With `CCC(=O)C(c1ccccc1)c1ccccn1` (centres undefined), the GI50 is > 100 µM (inactive) in the assay with 786-0; > 100 µM (inactive) with ACHN; > 100 µM (inactive) with BT-549; > 100 µM (inactive) in the assay on DU-145; over 100 µM in the assay with HCT-15; > 100 µM (inactive) with HOP-62. In addition, the GI50 in the assay with HOP-92, with HT-29, in the assay on IGROV-1, in the assay with NCI-H226, with NCI-H23 and with NCI/ADR-RES was > 100 µM (inactive) each time. Moreover, the GI50 in the assay on OVCAR-4, with OVCAR-8, in the assay with SK-MEL-5, in the assay with SK-OV-3, in the assay with SNB-19 and in the assay with TK-10 was > 100 µM (inactive) throughout. The GI50 in the assay on UO-31 is > 100 µM (inactive).
With `O=C1c2ccccc2CN1c1ccc(OCCN2CCCCC2)cc1`, the GI50 was > 10 µM (inactive) in the assay on 786-0; > 10 µM (inactive) in the assay with ACHN; > 10 µM (inactive) in the assay on BT-549; > 10 µM (inactive) in the assay with DU-145; over 10 µM with HCT-15; > 10 µM (inactive) in the assay on HOP-62. The GI50 in the assay with HOP-92, with HT-29, with IGROV-1, in the assay with NCI-H226, in the assay on NCI-H23 and in the assay with NCI/ADR-RES was > 10 µM (inactive) throughout. The GI50 in the assay with OVCAR-4, in the assay on OVCAR-8, in the assay on SK-MEL-5, in the assay on SK-OV-3, in the assay on SNB-19 and in the assay with TK-10 was > 10 µM (inactive) in each case. In addition, the GI50 in the assay with UO-31 is > 10 µM (inactive).
`Cc1cccc2c1NC(=O)/C2=N\Nc1ccccc1[N+](=O)[O-]`: the GI50 in the assay with 786-0 is 4.27 µM (inactive); in the assay with ACHN, 2.97 µM (inactive); in the assay on BT-549, 20.4 µM (inactive); in the assay on DU-145 it was 17.7 µM (inactive); in the assay on HCT-15, 15.3 µM; in the assay with HOP-62, 3.52 µM (inactive). Further, the GI50 in the assay on HOP-92 is 2.38 µM (inactive); with HT-29, 4.35 µM (inactive); with IGROV-1, 2.37 µM (inactive); with NCI-H226, 10.3 µM (inactive); with NCI-H23 it was 6.67 µM (inactive); in the assay with NCI/ADR-RES, 4.74 µM (inactive). In addition, the GI50 in the assay with OVCAR-4 was 4.05 µM (inactive); in the assay on OVCAR-8, 3.85 µM (inactive); in the assay with SK-MEL-5, 6.93 µM (inactive); in the assay on SK-OV-3, 4.34 µM (inactive); in the assay with SNB-19, 30.5 µM (inactive); in the assay with TK-10, 6.84 µM (inactive). The GI50 with UO-31 is 3.55 µM (inactive).
In the case of `CC(C)(C)C1(COC(=O)c2ccc(N)cc2)COC1`, the GI50 with 786-0 is 73.3 µM (inactive); in the assay on ACHN it was 78.7 µM (inactive); with BT-549 it was 54.6 µM (inactive); with DU-145, > 100 µM (inactive); in the assay with HCT-15, 63.2 µM; in the assay on HOP-62 it was > 100 µM (inactive). The GI50 in the assay with HOP-92 was > 100 µM (inactive); in the assay with HT-29, 50.1 µM (inactive); with IGROV-1, > 100 µM (inactive); with NCI-H226 it was > 100 µM (inactive); in the assay with NCI-H23, 66.7 µM (inactive); in the assay on NCI/ADR-RES it was 58.3 µM (inactive). The GI50 is 32.7 µM (inactive) in the assay on OVCAR-4; 58.3 µM (inactive) with OVCAR-8; 58.7 µM (inactive) in the assay on SK-MEL-5; 58.1 µM (inactive) in the assay with SK-OV-3; > 100 µM (inactive) in the assay with SNB-19; > 100 µM (inactive) in the assay on TK-10. The GI50 in the assay with UO-31 was 56 µM (inactive).
With `COc1cc2cc(C(=O)N3CC(CCl)c4c3cc([N+](C)(C)Cc3ccc([N+](=O)[O-])n3C)c3ccccc43)[nH]c2c(OC)c1OC` (centres undefined), the GI50 is 1.33 µM (inactive) in the assay on 786-0; 0.381 µM (active) with ACHN; 2.51 µM (inactive) in the assay on BT-549; 0.935 µM (active) with DU-145; 1.58 µM with HCT-15; 4.02 µM (inactive) in the assay on HOP-62. In addition, the GI50 was 0.619 µM (active) in the assay with HOP-92; 1.29 µM (inactive) in the assay on HT-29; 1.58 µM (inactive) in the assay with IGROV-1; 1.87 µM (inactive) in the assay with NCI-H226; 0.472 µM (active) in the assay with NCI-H23; 0.849 µM (active) in the assay with NCI/ADR-RES. Besides, the GI50 was 1.88 µM (inactive) in the assay on OVCAR-4; 1.38 µM (inactive) in the assay with OVCAR-8; 1.32 µM (inactive) in the assay with SK-MEL-5; 3.81 µM (inactive) with SK-OV-3; 3.44 µM (inactive) in the assay with SNB-19; 2.67 µM (inactive) with TK-10. Further, the GI50 in the assay with UO-31 is 1.17 µM (inactive).
For `O=C(O)C(O)C(O)C(O)C(O)c1nc2ccccc2s1` (centres undefined), the GI50 in the assay with 786-0 is 16.8 µM (inactive); with ACHN, 17.7 µM (inactive); in the assay on BT-549, 26.3 µM (inactive); in the assay on DU-145 it was 16.8 µM (inactive); with HCT-15, 27.9 µM; with HOP-62, 18.3 µM (inactive). Also, the GI50 in the assay on HOP-92 was 18.2 µM (inactive); with HT-29 it was 21.2 µM (inactive); with IGROV-1, 10.9 µM (inactive); with NCI-H226, 29.8 µM (inactive); with NCI-H23, 23.2 µM (inactive); in the assay on NCI/ADR-RES, 31 µM (inactive). In addition, the GI50 in the assay on OVCAR-4 is 20.3 µM (inactive); with OVCAR-8 it was 18.5 µM (inactive); in the assay with SK-MEL-5, 25.8 µM (inactive); with SK-OV-3, 19.1 µM (inactive); in the assay with SNB-19 it was 20.1 µM (inactive); in the assay on TK-10, 15.9 µM (inactive). Moreover, the GI50 in the assay on UO-31 is 15.9 µM (inactive).
Consider `C[C@]12C=CC(=O)C=C1CC[C@@H]1[C@@H]2C(=O)C[C@@]2(C)[C@H]1CC[C@]2(O)C(=O)CO` [PREDNISONE], for which the GI50 was > 100 µM (inactive) with 786-0; > 100 µM (inactive) in the assay with ACHN; > 100 µM (inactive) in the assay on BT-549; > 100 µM (inactive) in the assay with DU-145; over 100 µM in the assay with HCT-15; > 100 µM (inactive) in the assay with HOP-62. For the same compound, the GI50 in the assay with HOP-92, in the assay on HT-29, in the assay on IGROV-1, with NCI-H226, with NCI-H23 and in the assay with NCI/ADR-RES was > 100 µM (inactive) in each case. Moreover, the GI50 with OVCAR-4, in the assay with OVCAR-8, in the assay on SK-MEL-5, in the assay on SK-OV-3, in the assay with SNB-19 and in the assay on TK-10 was > 100 µM (inactive) in each case. Besides, the GI50 in the assay with UO-31 was > 100 µM (inactive).
